Assay results: patent publication US5905073A, “Use of 2-hydroxy-5-phenylazobenzoic acid derivatives as colon cancer chemopreventative and chemotherapeutic agents” (priority 1996, dated 1999)
Read-outs that look alike come from different tables or passages of the source.

Assays:
[1] = tested on: HT-29 cells; assay: Proliferation of HT-29 colon cancer cells, Coulter Counter cell count; type: cell-based, human
Protocol: Cells were grown in Dulbeccos Modified Eagle medium supplemented with 10% calf serum in an atmosphere of 5% CO2 at 37° C. For growth experiments, cells were seeded into 24-well tissue culture dishes (2 cm^2 /well) at a density of 20,000 cells/well and allowed to attach for 12 hours. The growth medium was then changed and replaced with fresh media containing the test drugs.
The test drugs were dissolved in tissue culture media at the desired concentration and added to individual wells. To determine the number of cells per well, media was removed and the cells washed with phosphate buffered saline solution. The cells were then incubated 15 minutes with trypsin-EDTA solution until detached. The detached cells were then removed from the wells and counted using a Coulter Counter (Model ZBI).
The cell numbers shown in Table I are the average of triplicate culture wells.

[2] = tested on: HT-29 cells; assay: Dose response growth inhibition of HT-29 cells, Sulforhodamine B dye binding assay; type: cell-based, human; settings: Homo sapiens
Protocol: (§1) For dose response studies a sensitive dye binding assay was adapted which allows simultaneous assay of multiple agents and doses in 96-well plates. Cells were plated and allowed to adhere for 24 hours prior to addition of the study drug. Cell densities were then determined 4 days later by fixation of the wells and staining with Sulforhodamine B dye.

[3] = tested on: HRT-18 cells; assay: Growth inhibition of HRT-18 colon cancer cells; type: cell-based; settings: Homo sapiens; HRT-18, Table IV; read-out: IC50 for inhibition of human colon cancer cell proliferation
Protocol: as §1

[4] = tested on: aberrant crypts induced by azoxymethane (AOM); assay: Inhibition of azoxymethane-induced aberrant crypt formation (induction study); type: in vivo, rat (F344); settings: in drinking water, distal 7-8 cm of colon
Text: Aberrant crypts were originally described in carcinogen-induced colonic mucosa as crypts of "increased size, thicker epithelial lining and increased pericryptal zones" (Bird et al. (1989) Cancer Surv. 8:189-200). […] The anti-tumor activity of several of these agents has been confirmed in longer term AOM animal studies. The aberrant crypt model is, therefore, an ideal in vivo assay for efficacy of balsalazide and metabolites.
Inhibition of Aberrant Crypt Induction.
Four groups of 5 male F344 rats were used. Animals were 6-8 weeks of age at the start of dosing with a starting weight range within +/-20% of the overall mean. The expected response to AOM treatment from published studies is the formation of 100-140 aberrant crypts per animal (Wargovich et al. (1992) J. Cell. Biochem. 16G:51-54). […]
Body weights were recorded twice weekly, and water consumed by each cage of animals measured twice weekly. Consumption is calculated as average ml/animal/cage.
For aberrant crypt analysis, animals were sacrificed under CO2 euthanasia at the end of either three weeks or five weeks of dosing. […] After a saline rinse, the number of foci of aberrant crypts was scored by counting under a microscope at 40-100× magnification. The length of the colonic tissue was also measured. […]

[5] = tested on: aberrant crypt foci induced by azoxymethane (AOM); assay: Inhibition of aberrant crypt progression / multiplicity, treatment started 24 hours after second AOM injection; type: in vivo, rat
Text: Inhibition of Aberrant Crypt Progression. The data shown in FIG. 4 were collected from the distal 7-8 cm of colonic tissue. At these early time points, this area contained over 80% of the total aberrant crypt foci. An additional study was therefore designed to examine a longer time point, assess the distribution throughout the entire 25 cm of colon and determine if the drug treatment could be initiated after the second AOM injection.
In the second study, groups of 8 animals received two injections of azoxymethane one week apart. Balsalazide treatment was then initiated with one group 24 hours following the second injection. Six weeks later the animals were processed for aberrant crypt analysis. Crypts were stained in situ by rectal instillation of a 0.2% solution of methylene blue for 15 min under anesthesia. Animals were then exsanguinated, colonic tissue from the anus to the caecum was excised, cleaned and fixed for 2 hours in 2% paraformaldehyde. Crypts were counted by viewing at a magnification of 40×. In addition to collecting data on the number of foci, data was also collected on the multiplicity of aberrant crypts per foci.
Previous studies by Pretlow et al (Pretlow et al. (1992) Carcinogenesis 13:1509-1512) have reported on the relationship between aberrant crypt multiplicity and ultimate tumor development using the same carcinogenesis model. […] The data from the above experiment was analyzed to determine the effect of balsalazide on the aberrant crypt multiplicity. […] For foci with 1-3 crypts the mean inhibition ranged from 57-61% (p<0.003, Fischer exact test) while the number of foci with 4 or more crypts was reduced by a mean of 72-76% (p<0.001). When the results on the number of foci containing 4 or more crypts are compared with those containing 3 or less the difference remains statistically significant at the p<0.022 level using the Fischer exact test.

[6] = cited from earlier work
[7] = cited from earlier work; remark: listed apart in the source
[8] = 6 weeks after second AOM injection, 8 animals

Question: What does the source list for O=C(O)CCNC(=O)c1ccc(/N=N/c2ccc(O)c(C(=O)O)c2)cc1 [Balsalazide]?
Answer: Cell No. on Day 10 ([1]; HT-29, 10 mM, average of triplicate wells): 47500; activity at 10000 µM ([1]; Homo sapiens, HT-29, 240 h, read-out: % of Control Cells): 3.6%; IC50 ([2]; HT-29, Table IV, read-out: IC50 for inhibition of human colon cancer cell proliferation): 5.71 mM; IC50 ([2]; HT-29, text (FIG. 5), read-out: IC50): 5.7 mM; IC50 [3]: 3.88 mM; inhibition in the average number of aberrant crypts ([4]; week 1): 61.8%; inhibition in the average number of aberrant crypts ([4]; week five): 58.1%; mean number of foci, Total [5, 8]: 63.75; mean number of foci, multiplicity 1 [5, 8]: 10.3; mean number of foci, multiplicity 2 [5, 8]: 19.1; mean number of foci, multiplicity 3 [5, 8]: 15.3; mean number of foci, multiplicity 4 [5, 8]: 8.5; mean number of foci, multiplicity 5 to 8 [5, 8]: 9.6; inhibition of aberrant crypt foci overall ([5]; given beginning 24 hours following second AOM injection, 6 weeks): approximately 60%; mean reduction of number of foci with 4 or more crypts ([5]; p<0.001): 72-76%; mean inhibition of foci with 1-3 crypts ([5]; p<0.003, Fischer exact test): 57-61%; reduction of foci with the greatest number of aberrant crypts relative to foci containing 2-3 ([5]; rat, in vivo): almost twice; absorption ([6]; oral balsalazide): virtually unabsorbed through the upper GI tract; drug reaching the colon intact ([6]; oral): 99%; gastric or duodenal ulceration ([7]; human, in vivo): no evidence of gastric or duodenal ulceration; gastrointestinal tolerance ([7]; human, in vivo): excellent gastrointestinal tolerance; nephrotoxicity ([7]; over 500 patients, some for as long as three years): no evidence of nephrotoxicity
